# Reference: patent publication US6541195B2, “Correction of genetic defects using chemical chaperones” (The Regents of the University of California, priority 1996, dated 2003)
# Read-outs that look alike come from different tables or passages of the source.
# Key:
# ΔF508 CFTR [1] = target: T1, ΔF508 CFTR (Homo sapiens, UniProt P13569, DEL508-508); assay: Western blotting of ΔF508 CFTR processing and maturation in transfected NIH 3T3 cells; type: cell-based
# T1 construct: expressed in transfected cells
# T1 sequence (P13569 with tags, fused parts or gaps DEL508-508): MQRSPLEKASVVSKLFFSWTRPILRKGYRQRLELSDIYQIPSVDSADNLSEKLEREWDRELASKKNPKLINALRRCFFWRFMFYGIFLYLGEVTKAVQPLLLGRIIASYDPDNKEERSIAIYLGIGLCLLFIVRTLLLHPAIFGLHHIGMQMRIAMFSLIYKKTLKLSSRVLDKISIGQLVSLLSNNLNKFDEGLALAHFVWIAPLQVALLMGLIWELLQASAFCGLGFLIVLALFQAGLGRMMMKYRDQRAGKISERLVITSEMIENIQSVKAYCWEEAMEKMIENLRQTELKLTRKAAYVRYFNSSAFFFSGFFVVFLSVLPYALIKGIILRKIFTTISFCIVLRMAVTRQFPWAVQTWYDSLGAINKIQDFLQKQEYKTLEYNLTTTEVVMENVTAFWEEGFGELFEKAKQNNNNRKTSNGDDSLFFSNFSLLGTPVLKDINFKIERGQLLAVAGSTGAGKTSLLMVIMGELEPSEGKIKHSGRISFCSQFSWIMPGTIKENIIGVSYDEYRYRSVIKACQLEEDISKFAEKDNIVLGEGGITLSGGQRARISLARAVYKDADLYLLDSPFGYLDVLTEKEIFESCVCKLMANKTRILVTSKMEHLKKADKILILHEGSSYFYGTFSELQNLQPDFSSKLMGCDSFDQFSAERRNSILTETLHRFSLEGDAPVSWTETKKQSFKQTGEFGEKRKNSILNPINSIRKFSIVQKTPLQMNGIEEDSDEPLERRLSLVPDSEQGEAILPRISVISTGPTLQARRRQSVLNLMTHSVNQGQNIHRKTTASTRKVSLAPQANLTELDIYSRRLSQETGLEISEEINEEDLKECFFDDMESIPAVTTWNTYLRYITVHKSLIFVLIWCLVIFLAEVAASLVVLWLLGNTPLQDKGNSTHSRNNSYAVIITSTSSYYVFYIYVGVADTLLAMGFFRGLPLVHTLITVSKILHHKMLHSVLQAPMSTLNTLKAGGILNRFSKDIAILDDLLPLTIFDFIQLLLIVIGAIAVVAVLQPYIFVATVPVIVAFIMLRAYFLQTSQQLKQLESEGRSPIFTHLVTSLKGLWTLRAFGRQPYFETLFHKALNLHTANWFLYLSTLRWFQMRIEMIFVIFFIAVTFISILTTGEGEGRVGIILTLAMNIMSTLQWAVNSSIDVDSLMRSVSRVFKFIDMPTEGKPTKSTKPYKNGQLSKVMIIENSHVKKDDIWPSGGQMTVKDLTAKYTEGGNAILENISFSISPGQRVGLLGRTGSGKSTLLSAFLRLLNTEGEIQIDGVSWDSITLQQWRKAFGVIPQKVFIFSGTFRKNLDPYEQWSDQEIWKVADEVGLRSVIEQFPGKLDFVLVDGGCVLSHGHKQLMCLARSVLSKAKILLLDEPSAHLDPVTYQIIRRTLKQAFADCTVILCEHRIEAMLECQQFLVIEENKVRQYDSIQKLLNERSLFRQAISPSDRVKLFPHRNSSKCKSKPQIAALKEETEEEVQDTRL
# Protocol: The effect of glycerol was measured by detecting either (1) the maturation of immature core-glycosylated endoplasmic reticulum forms of the ΔF508 CFTR to mature terminally glycosylated forms, or (2) the presence of forskolin-dependent chloride transport.
# Western blotting using a commercially available anti-CFTR monoclonal antibody (panel 1A) or our polyclonal anti-CFTR antibody (Panel 1B) was performed using cell lysates from NIH 3T3 cells transfected with either the wild type or ΔF508 forms of CFTR. Andersen, M. P. et al., Science, 253:202 (1991). Both the polyclonal and monoclonal antibodies recognized the 140 kDa (core glycosylated, or B form) and 160 kDa (fully glycosylated, C form) forms of CFTR in lysates from wild type CFTR expressing cells. In contrast, only the 140 kDa core glycosylated CFTR was detected by the two antibodies in the lysates from cells transfected with the ΔF508 CFTR mutant.
# In panel 1C, cells expressing the ΔF508 mutant were examined by Western blotting using the rabbit polyclonal antibody following their treatment at 37° C. with 1 M glycerol for 3 days. As a positive control, the ΔF508 CFTR expressing cells were incubated at 26° C. for 3 days.
# The results of experiments to determine the optimal concentration of glycerol and the duration of glycerol treatment needed to elicit the highest levels of mutant ΔF508 CFTR maturation are summarized in FIG. 2. In panel 2A, cells expressing ΔF508 CFTR were incubated at 37° C. for 3 days in culture medium containing various concentrations of glycerol. The cells were harvested and then analyzed by Western blotting using the rabbit polyclonal anti-CFTR antibody. In panel 2B, cells expressing ΔF508 CFTR were incubated with 1.25 M glycerol at 37° C. for 1, 2 or 3 days and then analyzed by Western blotting as described in A. Glycerol concentrations of 1-1.25 M gave the maximal amount of mutant protein which was properly processed.
# In Panel A of FIG. 22, 3T3 cells expressing the ΔF508 CFTR protein (via stable transfection) were treated with either 100 or 200 mM of the specified cellular osmolytes for 2 days. Cells were then lysed and examined by Western blot analysis. Wt represents cells expressing the wild type CFTR protein. B, G, T, S and M indicated cells treated with betaine, glucose, taurine, sorbitol and myoinositol, respectively.
# In Panel A, cells expressing ΔF508 CFTR were incubated in the presence or absence of varying concentrations (25, 50, 100 mM) of osmolyte. After 2 days of growth, the cells were harvested and analyzed for their content of immature (band B) and mature (band C) forms of the CFTR protein by Western blotting. Cells expressing wild type CFTR (wt) were included as a positive control. In Panel B, cells expressing ΔF508 CFTR were incubated for 1 (1D), 2(2D) or 3 (3D) days in growth medium containing 150 mM of the indicated osmolyte. As a control, the same cells were incubated in normal growth medium. […] After 3 days of continuous treatment with 150 mM osmolyte there is see a “drop-off” of the amount of the C band.
# ΔF508 CFTR [2] = target: T1, ΔF508 CFTR; assay: Forskolin stimulated chloride transport, SPQ fluorescence assay; type: cell-based; settings: for forskolin dependent chloride efflux: 37° C.
# Protocol: (§1) Forskolin-sensitive chloride transport was measured by the fluorescence assays method (FIG. 3). Briefly, ΔF508-CFTR expressing cells were grown on glass coverslips at 37° C. in the absence or presence of 1.25 M glycerol for 3 days. These cells, along with cells expressing wild type CFTR, then were examined for forskolin stimulated chloride transport using SPQ fluorescence assays, as described in: Verkman, A. S., Am. J. Physiol., 259:C375 (1990); Verkman, A. S. et al., in Methods in Neurosciences, Kraicer, J. et al., Eds. (Academic Press, 1995) vol. 27, 328. Plasma membrane chloride efflux was measured from the time course of increase in SPQ fluorescence in response to replacement of intracellular chloride by nitrate. Cells in the presence or absence of a protein stabilizing agent were incubated with 2 mM SPQ for 12-18 hrs. prior to measurements. The rate of chloride efflux was measured before and after stimulation of cAMP with forskolin. The reaction was quenched by the addition of 150 mM KSCN.
# (§2) The positive effect of glycerol treatment on chloride conductance was concentration and time dependent (FIG. 3B). ΔF508 CFTR-expressing cells growing on glass coverslips were incubated with various concentrations of glycerol for 3 days and then examined for forskolin stimulated chloride transport. Alternatively, cells were incubated with 1.25 M glycerol for varying times (1, 2 or 3 days) and then analyzed for chloride transport following stimulation by forskolin.
# Powdered DMEM medium (Gibco) was reconstituted in 100% distilled water or in 100% […]. Cells transfected with ΔF508 CFTR or mock transfected cells were incubated in either the distilled water or the dH2O containing culture medium for two days at 37° C., and then analyzed for forskolin dependent chloride efflux.
# Both mock transfected cells and the cells transfected with ΔF508 CFTR were incubated in regular DMEM culture medium containing 100 mM TMAO for two days at 37° C. and then analyzed for forskolin dependent chloride efflux.
# In contrast, cells treated with 4 different osmolytes now show partial chloride transport (note however that it never reaches the wild type levels, rather only about 10-30% of wild type).
# [3] = tested on: temperature sensitive form of pp60^src; type: cell-based, Rous sarcoma virus; settings: 39.5° C.
# [4] = target: temperature sensitive (ts) mutant p53 protein (Mus musculus, UniProt P02340, A135V); assay: Intracellular localization of temperature sensitive p53 in A1-5 cells by indirect immunofluorescence; settings: 39.5° C., after 2 D treatment
# Chain of temperature sensitive (ts) mutant p53 protein (P02340 whole entry A135V): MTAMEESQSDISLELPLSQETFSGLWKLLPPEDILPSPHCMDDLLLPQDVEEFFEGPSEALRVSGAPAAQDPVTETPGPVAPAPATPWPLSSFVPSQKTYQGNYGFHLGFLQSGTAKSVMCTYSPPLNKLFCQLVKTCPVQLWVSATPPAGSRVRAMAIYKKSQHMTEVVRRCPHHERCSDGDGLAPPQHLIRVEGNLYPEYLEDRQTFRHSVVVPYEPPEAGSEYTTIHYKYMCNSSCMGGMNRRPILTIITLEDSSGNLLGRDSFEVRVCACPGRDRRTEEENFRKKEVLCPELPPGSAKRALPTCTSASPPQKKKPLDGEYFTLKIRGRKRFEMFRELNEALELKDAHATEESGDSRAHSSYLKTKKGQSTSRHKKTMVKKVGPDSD
# [5] = target: conversion of PrP^C to PrP^Sc (Mus musculus, UniProt P04925); type: cell-based; settings: for reduction of the amount of detergent insoluble PrP: 100 mM
# Chain of conversion of PrP^C to PrP^Sc (P04925 23-230 limits assumed): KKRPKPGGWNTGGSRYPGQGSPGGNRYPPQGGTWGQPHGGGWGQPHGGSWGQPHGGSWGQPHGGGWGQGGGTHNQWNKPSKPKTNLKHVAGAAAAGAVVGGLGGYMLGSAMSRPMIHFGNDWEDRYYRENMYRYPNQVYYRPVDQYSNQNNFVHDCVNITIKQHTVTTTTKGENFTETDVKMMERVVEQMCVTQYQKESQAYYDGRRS
# wild type CFTR protein = target: T2, wild type CFTR protein (Homo sapiens, UniProt P13569); assay: Glycerol exposure of cells expressing wild type CFTR (Western blotting, chloride conductance); type: cell-based; settings: data not shown
# T2 construct: expressed in transfected cells; host or cells: NIH 3T3 fibroblasts
# T2 sequence (P13569 whole entry): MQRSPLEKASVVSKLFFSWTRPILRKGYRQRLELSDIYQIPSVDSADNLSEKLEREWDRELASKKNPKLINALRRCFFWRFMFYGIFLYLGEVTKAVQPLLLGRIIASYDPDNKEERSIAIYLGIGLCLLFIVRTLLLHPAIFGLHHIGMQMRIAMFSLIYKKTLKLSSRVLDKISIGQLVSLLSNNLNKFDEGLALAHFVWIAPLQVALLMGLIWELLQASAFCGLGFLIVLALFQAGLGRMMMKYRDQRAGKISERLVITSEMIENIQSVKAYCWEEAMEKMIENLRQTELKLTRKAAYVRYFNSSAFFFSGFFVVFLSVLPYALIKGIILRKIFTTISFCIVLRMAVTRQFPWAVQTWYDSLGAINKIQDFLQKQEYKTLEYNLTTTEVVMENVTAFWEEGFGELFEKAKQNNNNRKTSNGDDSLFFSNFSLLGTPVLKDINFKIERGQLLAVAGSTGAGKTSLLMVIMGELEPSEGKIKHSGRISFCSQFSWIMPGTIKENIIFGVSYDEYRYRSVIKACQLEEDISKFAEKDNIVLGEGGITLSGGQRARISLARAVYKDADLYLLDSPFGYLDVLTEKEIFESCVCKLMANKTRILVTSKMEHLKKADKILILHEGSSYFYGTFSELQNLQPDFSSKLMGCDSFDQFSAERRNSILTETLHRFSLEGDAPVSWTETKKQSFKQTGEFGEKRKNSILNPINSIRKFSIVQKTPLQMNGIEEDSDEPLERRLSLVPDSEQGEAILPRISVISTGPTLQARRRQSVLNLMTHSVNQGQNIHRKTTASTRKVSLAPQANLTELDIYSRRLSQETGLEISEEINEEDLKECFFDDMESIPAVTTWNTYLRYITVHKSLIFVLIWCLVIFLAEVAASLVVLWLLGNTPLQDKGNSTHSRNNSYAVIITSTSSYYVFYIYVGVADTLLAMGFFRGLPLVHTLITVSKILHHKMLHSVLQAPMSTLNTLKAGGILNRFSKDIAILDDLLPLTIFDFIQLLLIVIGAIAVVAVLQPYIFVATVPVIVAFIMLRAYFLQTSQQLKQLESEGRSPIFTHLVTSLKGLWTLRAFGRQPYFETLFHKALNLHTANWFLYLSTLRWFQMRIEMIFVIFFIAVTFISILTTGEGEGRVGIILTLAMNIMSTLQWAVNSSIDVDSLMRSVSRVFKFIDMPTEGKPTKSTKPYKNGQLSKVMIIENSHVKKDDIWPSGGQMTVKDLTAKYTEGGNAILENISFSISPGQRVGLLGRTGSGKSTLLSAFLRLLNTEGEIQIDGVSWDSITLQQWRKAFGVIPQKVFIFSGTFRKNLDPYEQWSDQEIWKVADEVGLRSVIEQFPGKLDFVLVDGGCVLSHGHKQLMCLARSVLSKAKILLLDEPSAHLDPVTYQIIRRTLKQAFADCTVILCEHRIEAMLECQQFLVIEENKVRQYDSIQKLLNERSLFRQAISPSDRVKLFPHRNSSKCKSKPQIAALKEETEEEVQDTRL
# Protocol: as §1, with “Cells in the presence or absence of a protein stabilizing agent were incubated with 2 mM SPQ for 12-18 hrs. prior to measurements.” left out, “The reaction was quenched by the addition of 150 mM KSCN.” left out
# as §2
structure (smiles),measurement,setting,value
[2H]O[2H] [deuterated water],CFTR processing in ΔF508 CFTR-expressing cells,ΔF508 CFTR [1]; deuterated water,competent to induce CFTR processing
same,forskolin dependent chloride efflux,"ΔF508 CFTR [2]; medium in 100% dH2O, two days",exhibited forskolin-dependent chloride transport
same,restoration of transformed phenotype / wild type pp60^src activity,[3],much less effective
same,p53 distribution 2 days following removal of the agent,[4],all of p53 now was found within the cytoplasm
"C[S+](C)[O-] [DMSO, dimethylsulfoxide]",concentration adversely affecting the morphology and growth rates of the cells,ScN2a cells; mouse,≥ 200 mM
same,reduction of the amount of detergent insoluble PrP,[5]; ScN2a cells,over 50%
OCC(O)CO [glycerol],mature ΔF508 CFTR protein by Western blotting,"ΔF508 CFTR [1]; 1 M glycerol, 37° C., 3 days",significant amounts of the mature ΔF508 CFTR protein
same,duration of treatment giving maximal amounts of fully glycosylated ΔF508 CFTR protein,"ΔF508 CFTR [1]; 1.25 M glycerol, 37° C.",3 days
same,glycerol concentration giving the maximal amount of properly processed mutant protein,"ΔF508 CFTR [1]; 37° C., 3 days",1 to 1.25 M
same,effect of higher doses on fully glycosylated ΔF508 CFTR,"ΔF508 CFTR [1]; doses higher than 1-1.25 M, 3 days",inhibitory
same,effect on amount of mature wild type CFTR protein or forskolin dependent chloride conductance,wild type CFTR protein,little or no effect
same,forskolin stimulated chloride transport,"ΔF508 CFTR [2]; 1.25 M glycerol, one day",forskolin stimulated chloride transport was observed
same,concentration giving maximal rates of chloride efflux,ΔF508 CFTR [2]; 3 days,1.25 M
same,lowest concentration with increased chloride transport,ΔF508 CFTR [2]; 3 days,0.5 M
same,exogenously added MHM2 PrP in detergent fractions versus untreated ScN2a cells,"[5]; 1 M glycerol 24 hrs, 40 hrs with MHM2 brain extract, 3F4 antibody",reduce the levels of the MHM2 protein in both the detergent soluble and insoluble fractions
same,glycerol concentrations also giving significant reduction in conversion of PrP^C to PrP^Sc,[5]; 3 days,0.25-0.5 M
same,most effective glycerol concentration for reducing detergent insoluble PrP,"[5]; 3 days, 0-1,000 mM tested",1 M
same,overall levels of insoluble PrP versus non-glycerol treated cells,"[5]; ScN2a cells, glycerol 24 hrs",marked reduction
same,PrP^C synthesis and movement of the newly synthesized protein to the plasma membrane (PIPLC release),"[5]; glycerol 24 hrs, PIPLC 5 U/ml 4 hrs",does not significantly affect
same,overall extent of PrP^C to PrP^Sc conversion relative to untreated cells (pulse-chase),"[5]; glycerol 3 days, then 5 days without glycerol",marked reduction
same,rate or overall extent of PrP^C synthesis (metabolic labeling),[5]; presence versus absence of glycerol,no significant differences
same,p53 distribution one day following removal of the agent,[4],no longer displayed a nuclear p53 distribution
"C[N+](C)(C)[O-] [TMAO, trimethylamine N-oxide]",concentration adversely affecting the morphology and growth rates of the cells,ScN2a cells,≥ 200 mM
same,forskolin dependent chloride efflux,"ΔF508 CFTR [2]; 100 mM TMAO, 2 days",Forskolin dependent chloride transport was observed
same,reduction of the amount of detergent insoluble PrP,[5]; ScN2a cells,over 50%
same,restoration of transformed phenotype / wild type pp60^src activity,[3],much less effective
same,p53 distribution 2 days following removal of the agent,[4],all of p53 now was found within the cytoplasm
